Reference: publication PMC8980701 (Neuropharmacology, 2020)
Counter-ions that a name gives are not always drawn.

What was measured:
Assay type in all cases: in vivo, male Sprague-Dawley rats
[1] = test system: cocaine self-administration; assay: Cocaine self-administration; conditions: for Active Lever Presses / Inactive Lever Presses: cocaine 0.25 mg/kg/inf, mean ± SEM
cocaine-seeking behavior = assay: Cocaine-seeking behavior test
[2] = Pharmacokinetics in plasma after single s.c. dose, alone or in combination; conditions: for half-life: t1/2; for concentration at 0 h / concentration at 15 min / concentration at 30 min / concentration at 60 min / concentration at 120 min / concentration at 180 min / concentration at 240 min / concentration at 360 min: Plasma concentration
[3] = pimavanserin 3 mg/kg s.c., 30 min pretreatment
[4] = male, Sprague-Dawley, rat, in vivo, sc, 0.5 mg/kg
[5] = male, Sprague-Dawley, rat, in vivo, sc, 1 mg/kg
[6] = male, Sprague-Dawley, rat, in vivo, sc, 3 mg/kg
[7] = male, Sprague-Dawley, rat, in vivo, sc, 10 mg/kg
[8] = lorcaserin 0.5 mg/kg s.c., 15 min pretreatment
[9] = lorcaserin 1 mg/kg s.c., 15 min pretreatment
[10] = rat plasma, single dose 0.5 mg/kg s.c., drug alone, mean ± SEM
[11] = rat plasma, single dose 1 mg/kg s.c., drug alone, mean ± SEM
[12] = rat plasma, single dose 3 mg/kg s.c., drug alone, mean ± SEM

## CC(C)COc1ccc(CNC(=O)N(Cc2ccc(F)cc2)C2CCN(C)CC2)cc1 [Pimavanserin]
[1]; acute pimavanserin 0.3, 1, 3 mg/kg, vs. control, Fig. 1A
  Effect on cocaine infusions: No main effect
[1]; [3]
  Active Lever Presses: 523.00 ± 54.57
  Inactive Lever Presses: 3.44 ± 1.74
cocaine-seeking behavior; acute and repeated pimavanserin 3 mg/kg, FA day 10
  Effect on inactive lever presses: No main effect
cocaine-seeking behavior; acute pimavanserin 3 mg/kg, FA day 10, p < 0.05
  Decrease of cue-reinforced lever presses vs. control: ~ 41.4%
cocaine-seeking behavior; acute pimavanserin 3 mg/kg, n.s. vs. control (14.39 ± 2.41 s)
  Latency to the first response: 29.83 ± 5.43 s
cocaine-seeking behavior; repeated pimavanserin 3 mg/kg
  Increase of latency to the first response vs. control: ~ 2.5 fold
cocaine-seeking behavior; repeated pimavanserin 3 mg/kg twice daily for 10 days, FA day 10, p < 0.05
  Decrease of cue-reinforced lever presses vs. control: ~ 27.1%
cocaine-seeking behavior; repeated pimavanserin 3 mg/kg, p < 0.05 vs. control (14.39 ± 2.41 s)
  Latency to the first response: 35.25 ± 7.81 s
[2]; [4]
  AUC0-inf: 15.02 ± 0.32 ng·h/mL
  AUC0-t: 14.40 ± 0.31 ng·h/mL
  AUCExtrap: 3.89 ± 1.42%
  Cl/F: 556.7 ± 12.2 mL/min/kg
  Cmax: 12.17 ± 0.38 ng/mL
  Half-life, t1/2: 77.4 ± 27 min
  Tmax: 17.4 ± 2.4 min
  λ: 0.76 ± 0.14 h⁻¹
[2]; male, Sprague-Dawley, rat, in vivo, sc, 0.5 mg/kg, 0 h
  Plasma concentration: 0.08 ± 0.05 ng/mL
[2]; male, Sprague-Dawley, rat, in vivo, sc, 0.5 mg/kg, 15 min
  Plasma concentration: 12.15 ± 0.39 ng/mL
[2]; male, Sprague-Dawley, rat, in vivo, sc, 0.5 mg/kg, 30 min
  Plasma concentration: 9.93 ± 0.50 ng/mL
[2]; male, Sprague-Dawley, rat, in vivo, sc, 0.5 mg/kg, 60 min
  Plasma concentration: 5.40 ± 0.23 ng/mL
[2]; male, Sprague-Dawley, rat, in vivo, sc, 0.5 mg/kg, 120 min
  Plasma concentration: 2.09 ± 0.13 ng/mL
[2]; male, Sprague-Dawley, rat, in vivo, sc, 0.5 mg/kg, 180 min
  Plasma concentration: 0.86 ± 0.11 ng/mL
[2]; male, Sprague-Dawley, rat, in vivo, sc, 0.5 mg/kg, 240 min
  Plasma concentration: 0.45 ± 0.10 ng/mL
[2]; male, Sprague-Dawley, rat, in vivo, sc, 0.5 mg/kg, 360 min
  Plasma concentration: 0.13 ± 0.06 ng/mL
[2]; [5]
  AUC0-inf: 41.72 ± 2.7 ng·h/mL
  AUC0-t: 41.27 ± 2.64 ng·h/mL
  AUCExtrap: 1.09 ± 0.28%
  Cl/F: 409.2 ± 30.2 mL/min/kg
  Cmax: 30.13 ± 2.17 ng/mL
  Half-life, t1/2: 53.4 ± 3 min
  λ: 0.79 ± 0.04 h⁻¹
[2]; male, Sprague-Dawley, rat, in vivo, sc, 1 mg/kg, 0 h
  Plasma concentration: 0.05 ± 0.03 ng/mL
[2]; male, Sprague-Dawley, rat, in vivo, sc, 1 mg/kg, 15 min
  Plasma concentration: 30.13 ± 2.17 ng/mL
[2]; male, Sprague-Dawley, rat, in vivo, sc, 1 mg/kg, 30 min
  Plasma concentration: 24.50 ± 1.59 ng/mL
[2]; male, Sprague-Dawley, rat, in vivo, sc, 1 mg/kg, 60 min
  Plasma concentration: 16.8 ± 1.02 ng/mL
[2]; male, Sprague-Dawley, rat, in vivo, sc, 1 mg/kg, 120 min
  Plasma concentration: 6.34 ± 0.39 ng/mL
[2]; male, Sprague-Dawley, rat, in vivo, sc, 1 mg/kg, 180 min
  Plasma concentration: 3.55 ± 0.81 ng/mL
[2]; male, Sprague-Dawley, rat, in vivo, sc, 1 mg/kg, 240 min
  Plasma concentration: 1.12 ± 0.14 ng/mL
[2]; male, Sprague-Dawley, rat, in vivo, sc, 1 mg/kg, 360 min
  Plasma concentration: 0.35 ± 0.08 ng/mL
[2]; [6]
  AUCExtrap: 4.26 ± 0.68%
  λ: 0.59 ± 0.03 h⁻¹
  CL/F: 255 mL/min/kg
  concentration at 0 h: 0.02 ± 0.02 ng/mL
  concentration at 15 min: 71.1 ± 5.89 ng/mL
  concentration at 30 min: 74.5 ± 5.1 ng/mL
  concentration at 60 min: 63.4 ± 3.59 ng/mL
  concentration at 120 min: 39.8 ± 2.4 ng/mL
  concentration at 180 min: 27.8 ± 2.37 ng/mL
  concentration at 240 min: 15.7 ± 1.48 ng/mL
  concentration at 360 min: 4.85 ± 0.62 ng/mL
[2]; male, Sprague-Dawley, rat, in vivo, sc, 3 mg/kg, AUC0-inf
  AUC0-inf: 198 ± 8.33 ng·h/mL
[2]; male, Sprague-Dawley, rat, in vivo, sc, 3 mg/kg, AUC0-t
  AUC0-t: 189 ± 7.75 ng·h/mL
[2]; male, Sprague-Dawley, rat, in vivo, sc, 3 mg/kg, CMAX
  Cmax: 79.5 ± 3.76 ng/mL
[2]; male, Sprague-Dawley, rat, in vivo, sc, 3 mg/kg, Half-life
  half-life: 70.8 ± 3 min
[2]; male, Sprague-Dawley, rat, in vivo, sc, 3 mg/kg, TMAX
  Tmax: 22.8 ± 3.6 min
[2]; [7]
  AUCExtrap: 32.22 ± 4.18%
  λ: 0.21 ± 0.02 h⁻¹
  CL/F: 135 mL/min/kg
  concentration at 0 h: 0.09 ± 0.41 ng/mL
  concentration at 15 min: 170 ± 18.8 ng/mL
  concentration at 30 min: 190 ± 19.9 ng/mL
  concentration at 60 min: 208 ± 15.6 ng/mL
  concentration at 120 min: 179 ± 11.6 ng/mL
  concentration at 180 min: 154 ± 15.1 ng/mL
  concentration at 240 min: 116 ± 7.99 ng/mL
  concentration at 360 min: 79.9 ± 6.24 ng/mL
[2]; male, Sprague-Dawley, rat, in vivo, sc, 10 mg/kg, AUC0-inf
  AUC0-inf: 1290 ± 112 ng·h/mL
[2]; male, Sprague-Dawley, rat, in vivo, sc, 10 mg/kg, AUC0-t
  AUC0-t: 858 ± 54.7 ng·h/mL
[2]; male, Sprague-Dawley, rat, in vivo, sc, 10 mg/kg, CMAX
  Cmax: 213 ± 15.9 ng/mL
[2]; male, Sprague-Dawley, rat, in vivo, sc, 10 mg/kg, Half-life
  half-life: 218 ± 32.4 min
[2]; male, Sprague-Dawley, rat, in vivo, sc, 10 mg/kg, TMAX
  Tmax: 57.6 ± 15 min
[2]; male, Sprague-Dawley, rat, in vivo, sc, TMAX
  Tmax: 15 to 60 min
[2]; male, Sprague-Dawley, rat, in vivo, sc
  half-life: 53 to 218 min

## Cc1cc2c(cc1Cl)N(C(=O)Nc1ccc(Oc3cccnc3C)nc1)CC2 [SB242084, 6-chloro-5-methyl-1-[[2-(2-methylpyrid-3-yloxy)pyrid-5-yl]carbamoyl] indolinedihydrochloride]
[1]; SB242084 0.5 mg/kg i.p. plus lorcaserin 1 mg/kg, p < 0.05, Fig. 1B
  Effect on lorcaserin-evoked suppression of cocaine intake: prevented this lorcaserin-evoked suppression of cocaine intake

## C[C@H]1CNCCc2ccc(Cl)cc21 [Lorcaserin, (1R)-8-chloro-2,3,4,5-tetrahydro-1-methyl-1H-3-benzazepine]
[1]; acute lorcaserin 1 mg/kg, vs. control, p < 0.05, Fig. 1B
  Effect on cocaine intake (infusions): suppressed cocaine intake
[1]; [8]
  Active Lever Presses: 536.23 ± 16.03
  Inactive Lever Presses: 2.08 ± 0.40
[1]; [9]
  Active Lever Presses: 492.46 ± 18.99
  Inactive Lever Presses: 3.00 ± 0.91
cocaine-seeking behavior; acute lorcaserin 1 mg/kg
  Increase of latency to the first response vs. control: ~ 6.7 fold
cocaine-seeking behavior; acute lorcaserin 1 mg/kg, FA day 10, p < 0.05
  Decrease of cue-reinforced lever presses vs. control: ~ 64.4%
cocaine-seeking behavior; acute lorcaserin 1 mg/kg, p < 0.05
  Suppression of inactive lever presses vs. control: ~ 64.6%
cocaine-seeking behavior; acute lorcaserin 1 mg/kg, p < 0.05 vs. control (14.39 ± 2.41 s)
  Latency to the first response: 95.83 ± 35.78 s
cocaine-seeking behavior; repeated lorcaserin 1 mg/kg
  Suppression of inactive lever presses vs. control: n.s.
cocaine-seeking behavior; repeated lorcaserin 1 mg/kg twice daily for 10 days, FA day 10, p < 0.05
  Decrease of cue-reinforced lever presses vs. control: ~ 36.4%
cocaine-seeking behavior; repeated lorcaserin 1 mg/kg, n.s. vs. control (14.39 ± 2.41 s)
  Latency to the first response: 30.15 ± 5.52 s
[2]; [10]
  AUCExtrap: 12.68 ± 2.45%
  λ: 0.31 ± 0.03 h⁻¹
[2]; [11]
  AUCExtrap: 8.06 ± 0.47%
  λ: 0.39 ± 0.02 h⁻¹
[2]; [12]
  AUCExtrap: 7.97 ± 0.50%
  λ: 0.38 ± 0.01 h⁻¹
